Measured values from ChEMBL document CHEMBL1764981, “Coumarin-purine ribofuranoside conjugates as new agents against hepatitis C virus” (J Med Chem, 2011).
pEC50: −log10 of the molar value. Values after ≈ are worked out from the molar mass of the structure shown. Active and inactive are the calls of the source. The calls are words filed in the database; no cut-off is given here.

Key:
[1] = Selectivity index, ratio of CC50 for human Huh5-2 cells to EC50 for Hepatitis C virus; assay type: toxicity, cell-based, Huh-5-2; details: read-out: Ratio CC50/EC50
Huh-5-2 = assay: Cytotoxicity against human Huh5-2 cells assessed as microscopically detectable alteration in cell morphology by cytostatic determination assay; assay type: functional
Hepatitis C virus [2] = assay: Antiviral activity against Hepatitis C virus infected in human Huh5-2 cells assessed as […] by viral RNA (luciferase) assay; assay type: functional, organism-based, Hepacivirus hominis; details: Huh-5-2
[3] = Solubility of compound in water by HPLC-UV method; assay type: physicochemical
Hepatitis C virus [4] = assay: Antiviral activity against Hepatitis C virus; assay type: functional, organism-based; details: Hepacivirus hominis

pEC50 (Hepatitis C virus [2])	solubility [3] [µg/mL]	SMILES	selectivity ratio [1]	CC50 (Huh-5-2) [µM]	Activity (Hepatitis C virus [4])
5.23	–	O=c1oc2c(Br)cc(Br)cc2cc1CSc1nc2cncnc2n1[C@@H]1O[C@H](CO)[C@@H](O)[C@H]1O	6.1	36	–
5.04	–	Cc1ccc2oc(=O)c(CSc3nc4cncnc4n3[C@@H]3O[C@H](CO)[C@@H](O)[C@H]3O)cc2c1	5.1	46	–
5.64	78.3 (≈ 131 µM)	COc1cccc2cc(CSc3nc4cncnc4n3[C@@H]3O[C@H](COC(C)=O)[C@@H](OC(C)=O)[C@H]3OC(C)=O)c(=O)oc12	3.3	7.5	–
5.31	–	CC(=O)OC[C@H]1O[C@@H](n2c(SCc3cc4cc(Br)ccc4oc3=O)nc3cncnc32)[C@H](OC(C)=O)[C@@H]1OC(C)=O	1.4	6.7	–
4.57	–	Nc1ncnc2c1nc(SCc1cc3cc(Br)ccc3oc1=O)n2[C@@H]1O[C@H](CO)[C@@H](O)[C@H]1O	1.5	41	–
5.24	216 (≈ 421 µM)	COc1cccc2cc(CSc3nc4cncnc4n3[C@@H]3O[C@H](COC(C)=O)[C@@H](O)[C@H]3O)c(=O)oc12	1.9	11	–
4.55	–	Nc1ncnc2c1nc(SCc1cc3ccccc3oc1=O)n2[C@@H]1O[C@H](CO)[C@@H](O)[C@H]1O	1.7	49	–
5.13	–	O=c1oc2ccc(F)cc2cc1CSc1nc2cncnc2n1[C@@H]1O[C@H](CO)[C@@H](O)[C@H]1O	4.9	36	–
5.80	87.7 (≈ 171 µM)	COc1cccc2cc(CSc3nc4cncnc4n3[C@@H]3O[C@H](CO)[C@@H]4OC(C)(C)O[C@@H]43)c(=O)oc12	5.2	8.4	–
5.08	–	CC(=O)OC[C@H]1O[C@@H](n2c(SCc3cc4cc(Br)ccc4oc3=O)nc3cncnc32)[C@H](O)[C@@H]1O	3.8	31	–
4.59	–	Nc1ncnc2c1nc(SCc1cc3cc(Br)cc(Br)c3oc1=O)n2[C@@H]1O[C@H](CO)[C@@H](O)[C@H]1O	1.4	36	–
4.37	–	COc1cccc2cc(CSc3nc4c(N)ncnc4n3[C@@H]3O[C@H](CO)[C@@H](O)[C@H]3O)c(=O)oc12	> 2.4	> 103	–
5.31	–	CC(=O)OC[C@H]1O[C@@H](n2c(SCc3cc4cc(Br)cc(Br)c4oc3=O)nc3cncnc32)[C@H](OC(C)=O)[C@@H]1OC(C)=O	1.2	6	–
5.18	–	CC(=O)OC[C@H]1O[C@@H](n2c(SCc3cc4ccccc4oc3=O)nc3cncnc32)[C@H](OC(C)=O)[C@@H]1OC(C)=O	5.9	39	–
5.68	–	CC1(C)O[C@@H]2[C@H](O1)[C@H](n1c(SCc3cc4cc(Br)ccc4oc3=O)nc3cncnc31)O[C@@H]2CO	3.6	7.5	–
< 3.75	–	OC[C@H]1O[C@@H](n2c(S)nc3cncnc32)[C@H](O)[C@@H]1O	–	> 176	–
5.17	–	CC(=O)OC[C@H]1O[C@@H](n2c(SCc3cc4cc(Br)cc(Br)c4oc3=O)nc3cncnc32)[C@H](O)[C@@H]1O	1	7	–
–	31.6 (≈ 92.8 µM)	COc1cccc2cc(CSc3nc4cncnc4[nH]3)c(=O)oc12	4.8	94	–
5.34	–	CC(=O)OC[C@H]1O[C@@H](n2c(SCc3cc4cc(C)ccc4oc3=O)nc3cncnc32)[C@H](O)[C@@H]1O	3.5	16	–
5.42	–	CC(=O)OC[C@H]1O[C@@H](n2c(SCc3cc4cc(F)ccc4oc3=O)nc3cncnc32)[C@H](O)[C@@H]1O	2.3	8.6	–
5.02	224 (≈ 474 µM)	COc1cccc2cc(CSc3nc4cncnc4n3[C@@H]3O[C@H](CO)[C@@H](O)[C@H]3O)c(=O)oc12	5	47	–
5.11	–	CC(=O)OC[C@H]1O[C@@H](n2c(SCc3cc4cc(C)ccc4oc3=O)nc3cncnc32)[C@H](OC(C)=O)[C@@H]1OC(C)=O	2.1	16	–
5.26	–	O=c1oc2ccccc2cc1CSc1nc2cncnc2n1[C@@H]1O[C@H](CO)[C@@H](O)[C@H]1O	9.1	50	–
5.55	–	CC1(C)O[C@@H]2[C@H](O1)[C@H](n1c(SCc3cc4ccccc4oc3=O)nc3cncnc31)O[C@@H]2CO	3.2	8.8	–
5.21	–	CC(=O)OC[C@H]1O[C@@H](n2c(SCc3cc4cc(F)ccc4oc3=O)nc3cncnc32)[C@H](OC(C)=O)[C@@H]1OC(C)=O	1.2	7.6	–
5.37	–	O=c1oc2ccc(Cl)cc2cc1CSc1nc2cncnc2n1[C@@H]1O[C@H](CO)[C@@H](O)[C@H]1O	8.5	37	–
< 3.91	–	CC(=O)OC[C@H]1O[C@@H](n2c(=S)[nH]c3cncnc32)[C@H](OC(C)=O)[C@@H]1OC(C)=O	–	> 122	inactive
< 5.05	–	CC(=O)OC[C@H]1O[C@@H](n2c(SCc3cc4ccccc4oc3=O)nc3cncnc32)[C@H](O)[C@@H]1O	< 0.98	8.7	–
5.49	–	CC(=O)OC[C@H]1O[C@@H](n2c(SCc3cc4cc(Cl)ccc4oc3=O)nc3cncnc32)[C@H](OC(C)=O)[C@@H]1OC(C)=O	2.4	7.5	–
4.18	–	CC(=O)OC[C@H]1O[C@@H](n2c(=S)n([C@@H]3O[C@H](COC(C)=O)[C@@H](OC(C)=O)[C@H]3OC(C)=O)c3ncncc32)[C@H](OC(C)=O)[C@@H]1OC(C)=O	> 1.1	> 75	inactive
